# From US20080249124A1, “WORTMANNIN-RAPALOG CONJUGATE AND USES THEREOF” (Wyeth, priority 2007, published 2008)
# How the values were obtained:
# C3H mammary model = conditions: cited from earlier work
# PI3K = conditions: cited from earlier work
# [1] = system: U87MG (human glioblastoma) tumor; assay: Xenograft tumor efficacy study; type: in vivo; conditions: female nude mice; for tumor size versus control and single reference compounds: 15 mg/kg IV on day 0 and day 7, D5W vehicle; for tumor size versus mixture of reference compounds 1 and 2: 15 mg/kg IV on day 0 and day 7, mixture 10 mg/kg/5 mg/kg
# Protocol: Female nude mice at 10 weeks of age were inoculated subcutaneously on the flank with 200 μL U87MG (human glioblastoma) tumor cell suspension. U87MG cells were suspended in full growth media and were implanted at 10 million cells per mouse. Mice were staged when tumors reached approximately 200 mm^3 in sizes. Tumor bearing mice at staging (day 0) were randomized into treatment groups (n=10). The conjugates described herein were formulated in D5W vehicle (glucose-water) and were dosed IV on day 0 and day 7. See, Table 6.
# The growth of tumors was monitored twice a week for the duration of the experiment. Tumor size was measured using sliding vernier calipers, and the tumor mass was calculated using the formula (length×Width^2)/2.
# tumor xenografts = conditions: animals; cited from earlier work
molecule,measurement,setting,value
COCC1OC(=O)c2coc3c2C1(C)C1=C(C3=O)C2CCC(O)C2(C)CC1OC(C)=O (stereo not drawn) [17β-Hydroxywortmannin],anti-tumor activity,C3H mammary model; dose of 0.5 mg/kg,no inhibition
same,toxicity,C3H mammary model; dose of 1.0 mg/kg,toxicity
same,increase in activity relative to wortmannin,PI3K; PI3K,10 fold
same,IC50,PI3K,0.5 nM
"COC[C@H]1OC(=O)/C(=C/N(C)CCCN(C)C)C2=C(O)C(=O)C3=C([C@H](OC(C)=O)C[C@@]4(C)C3CC[C@@H]4OC(=O)CCCCCCC(=O)O[C@H]3CC[C@H](C[C@@H](C)[C@@H]4CC(=O)[C@H](C)/C=C(\C)[C@@H](O)[C@@H](OC)C(=O)[C@H](C)C[C@H](C)/C=C/C=C/C=C(\C)[C@@H](OC)C[C@@H]5CC[C@@H](C)[C@@](O)(O5)C(=O)C(=O)N5CCCC[C@H]5C(=O)O4)CC3)[C@]21C (stereo partly shown) [Example 2b, N,N,N′-trimethyl-1,3-propanediamine adduct of 42,17′-linked 41-Desmethoxyrapamycin-Suberate-Wortmannin conjugate]",tumor size versus control and single reference compounds,[1],smaller tumors than tumors treated with control or with reference compound 1 or reference compound
same,tumor size versus mixture of reference compounds 1 and 2,[1],tumors of comparable size to that achieved with a mixture of reference compounds 1 and 2
COC[C@H]1OC(=O)c2coc3c2[C@@]1(C)C1=C(C3=O)[C@@H]2CCC(=O)[C@@]2(C)C[C@H]1OC(C)=O [Wortmannin],PI3K inhibition,PI3K,"irreversible inhibitor, at nanomolar concentrations"
same,antitumor activity against tumor xenografts,tumor xenografts,antitumor activity against tumor xenografts in animals
"Diallylamine Adduct of 42,17′-linked 41-Desmethoxyrapamycin-Suberate-Wortmannin Conjugate [Example 2a]",tumor size versus control and single reference compounds,[1],smaller tumors than tumors treated with control or with reference compound 1 or reference compound
diallylamine adduct of 17-hydroxywortmannin [compound 2],tumor size versus mixture of reference compounds 1 and 2,[1],tumors of comparable size to that achieved with a mixture of reference compounds 1 and 2
